In patent US10525041B2, “Fluoroalkyl-substituted aryltriazole derivatives and uses thereof” (BAYER PHARMA AKTIENGESELLSCHAFT, priority 2016, dated 2020):

Assays:
[1] = target: T1, human V2 receptor (Homo sapiens, UniProt P30518); assay: Cellular in vitro assay for vasopressin receptor activity, V2 cell line (CRE-luciferase); format: cell-based; conditions: CHO cell line transfected with human V2 receptor; agonist [Arg8]-vasopressin at EC50 concentration, 3 hours; read-out: IC50hV2
T1 construct: expressed in transfected cells; host or cells: CHO K1 (ATCC) line expressing firefly luciferase under a CRE-responsive promoter
Description: (§1) B-1. Cellular In Vitro Assay for Determining Vasopressin Receptor Activity
(§2) The identification of agonists and antagonists of the V1a and V2 vasopressin receptors from humans, rats and dogs as well as the quantification of the activity of the compounds of the invention is carried out using recombinant cell lines. These cell lines originally derive from a hamster's ovary epithelial cell (Chinese Hamster Ovary, CHO K1, ATCC: American Type Culture Collection, Manassas, Va. 20108, USA). The test cell lines constitutively express the human, rat or dog V1a or V2 receptors. In case of the Gαq-coupled V1a receptors, cells are also stably transfected with a modified form of the calcium-sensitive photoproteins aequorin (human and rat V1a) or obelin (dog V1a), which, after reconstitution with the cofactor coelenterazine, emit light when there are increases in free calcium concentrations [Rizzuto R, Simpson A W, Brini M, Pozzan T, Nature 358, 325-327 (1992); Illarionov B A, Bondar V S, Illarionova V A, Vysotski E S, Gene 153 (2), 273-274 (1995)]. The resulting vasopressin receptor cells react to stimulation of the recombinantly expressed V1a receptors by intracellular release of calcium ions, which can be quantified by the resulting photoprotein luminescence. The Gs-coupled V2 receptors are stably transfected into cell lines expressing the gene for firefly luciferase under control of a CRE-responsible promoter. Activation of V2 receptors induces the activation of the CRE-responsive promoter via cAMP increase, thereby inducing the expression of firefly luciferase. The light emitted by photoproteins of V1a cell lines as well as the light emitted by firefly luciferase of V2 cell lines corresponds to the activation or inhibition of the respective vasopressin receptor. The bioluminescence of the cell lines is detected using a suitable luminometer [Milligan G, Marshall F, Rees S, Trends in Pharmacological Sciences 17, 235-237 (1996)].
Vasopressin V2 Receptor Cell Lines:
On the day before the assay, the cells are plated out in culture medium (DMEM/F12, 2% FCS, 2 mM glutamine, 10 mM HEPES) in 384-well microtiter plates and kept in a cell incubator (96% humidity, 5% v/v CO2, 37° C.). On the day of the assay, test compounds in various concentrations and the agonist [Arg^8]-vasopressin at EC50 concentration are added together to the wells, and plates are incubated for 3 hours in a cell incubator. Upon addition of the cell lysis reagent Triton™ and the substrate luciferin, luminescence of firefly luciferase is measured in a luminometer.
(§3) Table 1A below lists individual IC50 values for the compounds of the invention (including racemic mixtures as well as separated enantiomers) that were obtained from cell lines transfected with the human V1a or V2 receptor: […]

[2] = target: T2, human V1a receptor (Homo sapiens, UniProt P37288); assay: Cellular in vitro assay for vasopressin receptor activity, V1a cell line (aequorin luminescence); format: cell-based; conditions: for IC50: CHO cell line transfected with human V1a receptor, agonist [Arg8]-vasopressin at EC50 concentration, read-out: IC50hV1a; for ratio IC50 hV2/hV1a: ratio of the IC50 on human V2 to the IC50 on human V1a
T2 construct: expressed in transfected cells; host or cells: CHO K1 (ATCC), also stably transfected with a modified aequorin
Description: as §1, §2
Vasopressin V1a Receptor Cell Lines:
On the day before the assay, the cells are plated out in culture medium (DMEM/F12, 2% FCS, 2 mM glutamine, 10 mM HEPES, 5 μg/ml coelenterazine) in 384-well microtiter plates and kept in a cell incubator (96% humidity, 5% v/v CO2, 37° C.). On the day of the assay, test compounds in various concentrations are placed for 10 minutes in the wells of the microtiter plate before the agonist [Arg^8]-vasopressin at EC50 concentration is added. The resulting light signal is measured immediately in a luminometer.
as §3

T2 sequence (P37288 whole entry): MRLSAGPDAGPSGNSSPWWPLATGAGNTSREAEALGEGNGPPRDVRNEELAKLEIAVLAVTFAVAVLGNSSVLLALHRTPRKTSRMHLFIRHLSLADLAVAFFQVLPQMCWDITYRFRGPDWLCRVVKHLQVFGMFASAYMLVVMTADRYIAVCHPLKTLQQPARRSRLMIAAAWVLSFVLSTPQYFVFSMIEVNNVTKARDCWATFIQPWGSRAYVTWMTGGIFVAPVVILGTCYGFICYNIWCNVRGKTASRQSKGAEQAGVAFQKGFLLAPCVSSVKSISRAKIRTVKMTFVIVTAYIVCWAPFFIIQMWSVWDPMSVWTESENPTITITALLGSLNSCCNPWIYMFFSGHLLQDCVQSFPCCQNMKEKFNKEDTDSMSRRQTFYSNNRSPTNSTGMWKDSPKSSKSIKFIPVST
T1 sequence (P30518 whole entry): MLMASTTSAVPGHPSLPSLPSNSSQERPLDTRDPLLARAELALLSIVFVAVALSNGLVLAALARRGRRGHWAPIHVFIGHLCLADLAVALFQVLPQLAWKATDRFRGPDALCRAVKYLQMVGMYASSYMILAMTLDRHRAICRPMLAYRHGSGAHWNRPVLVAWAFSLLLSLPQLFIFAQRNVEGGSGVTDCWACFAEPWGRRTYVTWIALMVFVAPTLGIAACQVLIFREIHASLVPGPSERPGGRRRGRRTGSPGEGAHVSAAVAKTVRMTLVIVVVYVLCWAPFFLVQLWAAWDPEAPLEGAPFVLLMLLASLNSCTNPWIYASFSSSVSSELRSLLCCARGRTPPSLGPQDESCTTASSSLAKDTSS

SMILES | IC50 [1] | IC50 [2] | ratio IC50 hV2/hV1a [2]
Cc1ccccc1-n1nc(Cn2nc(-c3ccc(Cl)cc3)n(C[C@H](O)C(F)(F)F)c2=O)nc1C(C)(F)F [Example 64, 5-(4-Chlorophenyl)-2-{[5-(1,1-difluoroethyl)-1-(2-methylphenyl)-1H-1,2,4-triazol-3-yl]methyl}-4-[(2S)-3,3,3-trifluoro-2-hydroxypropyl]-2,4-dihydro-3H-1,2,4-triazol-3-one] | 1.7 nM | 1.06 nM | 1.6
CC(F)c1nc(Cn2nc(-c3ccc(Cl)cc3)n(C[C@H](O)C(F)(F)F)c2=O)nn1-c1ncccc1Cl (single isomer, unassigned) [Example 21] | 12.5 nM | 1.55 nM | 8.1
CC(F)c1nc(Cn2nc(-c3ccc(Cl)cc3)n(C[C@H](O)C(F)(F)F)c2=O)nn1-c1ccccc1OC(F)(F)F (single isomer, unassigned) [Example 27] | 9.8 nM | 1.75 nM | 5.6
Cc1cccc(C)c1-n1nc(Cn2nc(-c3ccc(Cl)cc3)n(C[C@H](O)C(F)(F)F)c2=O)nc1C(C)(F)F [Example 71, 5-(4-Chlorophenyl)-2-{[5-(1,1-difluoroethyl)-1-(2,6-dimethylphenyl)-1H-1,2,4-triazol-3-yl]methyl}-4-[(2S)-3,3,3-trifluoro-2-hydroxypropyl]-2,4-dihydro-3H-1,2,4-triazol-3-one] | 4.27 nM | 5.3 nM | 0.8
CC(F)c1nc(Cn2nc(-c3ccc(Cl)cc3)n(C[C@H](O)C(F)(F)F)c2=O)nn1-c1cccc(Cl)c1 (single isomer, unassigned) [Example 17] | 0.25 nM | 9.25 nM | 0.0
CC(F)c1nc(Cn2nc(-c3ccc(Cl)cc3)n(C[C@H](O)C(F)(F)F)c2=O)nn1-c1ccccc1C(F)(F)F (single isomer, unassigned) [Example 23] | 33 nM | 3.75 nM | 8.8
O=c1n(Cc2nc(C(F)(F)F)n(-c3cccc(F)c3)n2)nc(-c2ccc(Cl)cc2)n1C[C@H](O)C(F)(F)F [Example 78, 5-(4-Chlorophenyl)-2-{[1-(3-fluorophenyl)-5-(trifluoromethyl)-1H-1,2,4-triazol-3-yl]methyl}-4-[(2S)-3,3,3-trifluoro-2-hydroxypropyl]-2,4-dihydro-3H-1,2,4-triazol-3-one] | 4.75 nM | 49.6 nM | 0.1
O=c1n(Cc2nc(C(F)(F)F)n(-c3ccccc3Cl)n2)nc(-c2ccc(Cl)cc2)n1C[C@H](O)C(F)(F)F [Example 79, 5-(4-Chlorophenyl)-2-{[1-(2-chlorophenyl)-5-(trifluoromethyl)-1H-1,2,4-triazol-3-yl]methyl}-4-[(2S)-3,3,3-trifluoro-2-hydroxypropyl]-2,4-dihydro-3H-1,2,4-triazol-3-one] | 2.58 nM | 0.78 nM | 3.3
CC(C)c1ccccc1-n1nc(Cn2nc(-c3ccc(Cl)cc3)n(C[C@H](O)C(F)(F)F)c2=O)nc1C(C)(F)F [Example 72, 5-(4-Chlorophenyl)-2-({5-(1,1-difluoroethyl)-1-[2-(propan-2-yl)phenyl]-1H-1,2,4-triazol-3-yl}methyl)-4-[(2S)-3,3,3-trifluoro-2-hydroxypropyl]-2,4-dihydro-3H-1,2,4-triazol-3-one] | 34.7 nM | 31 nM | 1.1

Next, values leading:

IC50 [1] | IC50 [2] | ratio IC50 hV2/hV1a [2] | SMILES
13.5 nM | 3.9 nM | 3.5 | CC(F)c1nc(Cn2nc(-c3ccc(Cl)cc3)n(C[C@H](O)C(F)(F)F)c2=O)nn1-c1ccccc1C(F)(F)F (mixture of isomers) [Example 22, 5-(4-Chlorophenyl)-2-({5-[1-fluoroethyl]-1-[2-(trifluoromethyl)phenyl]-1H-1,2,4-triazol-3-yl}methyl)-4-[(2S)-3,3,3-trifluoro-2-hydroxypropyl]-2,4-dihydro-3H-1,2,4-triazol-3-one]
6.9 nM | 2.95 nM | 2.3 | CC(F)(F)c1nc(Cn2nc(-c3ccc(Cl)cc3)n(C[C@H](O)C(F)(F)F)c2=O)nn1-c1c(F)cccc1Cl [Example 69, 2-{[1-(2-Chloro-6-fluorophenyl)-5-(1,1-difluoroethyl)-1H-1,2,4-triazol-3-yl]methyl}-5-(4-chlorophenyl)-4-[(2S)-3,3,3-trifluoro-2-hydroxypropyl]-2,4-dihydro-3H-1,2,4-triazol-3-one]
7.03 nM | 1.4 nM | 5.0 | O=c1n(Cc2nc(C(F)(F)C3CCOCC3)n(-c3ccccc3Cl)n2)nc(-c2ccc(Cl)cc2)n1C[C@H](O)C(F)(F)F [Example 77, 5-(4-Chlorophenyl)-2-({1-(2-chlorophenyl)-5-[difluoro(tetrahydro-2H-pyran-4-yl)methyl]-1H-1,2,4-triazol-3-yl}methyl)-4-[(2S)-3,3,3-trifluoro-2-hydroxypropyl]-2,4-dihydro-3H-1,2,4-triazol-3-one]
165 nM | 82 nM | 2.0 | CC(F)c1nc(Cn2nc(-c3ccc(Cl)cc3)n(C[C@H](O)C(F)(F)F)c2=O)nn1-c1ccccc1C#N (mixture of isomers) [Example 38, 2-{3-({3-(4-Chlorophenyl)-5-oxo-4-[(2S)-3,3,3-trifluoro-2-hydroxypropyl]-4,5-dihydro-1H-1,2,4-triazol-1-yl}methyl)-5-[1-fluoroethyl]-1H-1,2,4-triazol-1-yl}benzonitrile]
11.6 nM | 1.73 nM | 6.7 | CC(F)(F)c1nc(Cn2nc(-c3ccc(Cl)cc3)n(C[C@H](O)C(F)(F)F)c2=O)nn1-c1ccccc1C(F)(F)F [Example 60, 5-(4-Chlorophenyl)-2-({5-(1,1-difluoroethyl)-1-[2-(trifluoromethyl)phenyl]-1H-1,2,4-triazol-3-yl}methyl)-4-[(2S)-3,3,3-trifluoro-2-hydroxypropyl]-2,4-dihydro-3H-1,2,4-triazol-3-one]
44.5 nM | 4.15 nM | 10.7 | CC(F)(F)c1nc(Cn2nc(-c3ccc(Cl)cc3)n(C[C@H](O)C(F)(F)F)c2=O)nn1-c1ccccc1OC(F)(F)F [Example 61, 5-(4-Chlorophenyl)-2-({5-(1,1-difluoroethyl)-1-[2-(trifluoromethoxy)phenyl]-1H-1,2,4-triazol-3-yl}methyl)-4-[(2S)-3,3,3-trifluoro-2-hydroxypropyl]-2,4-dihydro-3H-1,2,4-triazol-3-one]
73.8 nM | 13.5 nM | 5.5 | CC(F)c1nc(Cn2nc(-c3ccc(Cl)cc3)n(C[C@H](O)C(F)(F)F)c2=O)nn1-c1ncccc1C(F)(F)F (single isomer, unassigned) [Example 11]
35 nM | 30 nM | 1.2 | CC(C)c1ccccc1-n1nc(Cn2nc(-c3ccc(Cl)cc3)n(C[C@H](O)C(F)(F)F)c2=O)nc1C(C)F (mixture of isomers) [Example 47, 5-(4-Chlorophenyl)-2-({5-[1-fluoroethyl]-1-[2-(propan-2-yl)phenyl]-1H-1,2,4-triazol-3-yl}methyl)-4-[(2S)-3,3,3-trifluoro-2-hydroxypropyl]-2,4-dihydro-3H-1,2,4-triazol-3-one]
26.7 nM | 4.7 nM | 5.7 | CC(F)(F)c1nc(Cn2nc(-c3ccc(Cl)cc3)n(C[C@H](O)C(F)(F)F)c2=O)nn1-c1ncccc1C(F)(F)F [Example 59, 5-(4-Chlorophenyl)-2-({5-(1,1-difluoroethyl)-1-[3-(trifluoromethyl)pyridin-2-yl]-1H-1,2,4-triazol-3-yl}methyl)-4-[(2S)-3,3,3-trifluoro-2-hydroxypropyl]-2,4-dihydro-3H-1,2,4-triazol-3-one]
